Laboratory results published in patent US20250051347A1, “BIFUNCTIONAL CHIMERIC HETEROCYCLIC COMPOUND AND USE THEREOF AS ANDROGEN RECEPTOR DEGRADER” (Hinova Pharmaceuticals, Inc., priority 2021, published 2025).
Read-outs that look alike come from different tables or passages of the source.

Assays:
[1] = molecular target: T1, androgen receptor (AR) splicing variant AR-v7 (Homo sapiens, UniProt P10275); assay: Degradation activity on androgen receptor splicing variant AR-v7 in 22RV1 cells (ELISA); format: cell-based; conditions: AR-v7 degradation in 22RV1 cells, 48 h, class symbols
T1 construct: The degradation activity of compounds on AR-v7 in 22RV1 cells; host or cells: 22RV1 cells
T1 sequence (P10275 1-644 isoform P10275-3): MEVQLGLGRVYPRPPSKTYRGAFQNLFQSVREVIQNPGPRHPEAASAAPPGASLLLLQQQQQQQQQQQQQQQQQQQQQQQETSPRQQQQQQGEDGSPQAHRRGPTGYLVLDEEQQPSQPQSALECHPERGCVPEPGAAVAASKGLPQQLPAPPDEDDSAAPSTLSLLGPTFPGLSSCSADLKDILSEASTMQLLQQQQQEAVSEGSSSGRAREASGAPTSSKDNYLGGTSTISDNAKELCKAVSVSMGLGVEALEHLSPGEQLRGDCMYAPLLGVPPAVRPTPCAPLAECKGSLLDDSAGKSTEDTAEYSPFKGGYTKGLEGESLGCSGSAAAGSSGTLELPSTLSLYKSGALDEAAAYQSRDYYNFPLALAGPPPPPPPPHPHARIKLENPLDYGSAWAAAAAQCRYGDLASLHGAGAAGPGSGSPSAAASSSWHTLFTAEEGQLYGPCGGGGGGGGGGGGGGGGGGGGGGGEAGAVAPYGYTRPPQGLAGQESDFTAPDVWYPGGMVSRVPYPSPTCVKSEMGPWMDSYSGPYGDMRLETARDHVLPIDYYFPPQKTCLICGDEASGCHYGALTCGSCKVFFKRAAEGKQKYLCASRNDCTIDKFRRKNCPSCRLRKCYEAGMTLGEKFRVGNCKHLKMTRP

[2] = test system: 22RV1 cells; conditions: Homo sapiens, 22Rv1, 144 h
[3] = read-out: 22RV1 IC50 (nM), 22RV1 cells, 6 days culture, CCK-8, OD 450 nm

Row | SMILES | DC50 [1] | IC50 [2, 3] | IC50 ([2]; read-out: 22RV1 IC50 (nM))
1 | CC(C)(O)c1cncc(Oc2ccc(C(C)(C)c3ccc(O[C@H]4C[C@H](Nc5ccc6c(c5)C(=O)N(C5CCC(=O)NC5=O)C6=O)C4)cc3)cc2)n1 (stereo partly shown) [Example 162] | < 10 nM | 10 nM | 
2 | CC(C)(c1ccc(OCc2cccc(N3CC4(COC4)C3)n2)cc1)c1ccc(O[C@H]2C[C@H](Nc3ccc4c(c3)C(=O)N(C3CCC(=O)NC3=O)C4=O)C2)cc1 (stereo partly shown) [Example 413] | < 10 nM | 11 nM | 
3 | CCC(=O)c1ncc(Oc2ccc(C(C)(C)c3ccc(O[C@H]4C[C@H](Nc5ccc6c(c5)C(=O)N(C5CCC(=O)NC5=O)C6=O)C4)cc3)cc2)cn1 (stereo partly shown) [Example 427] | < 10 nM | 6 nM | 
4 | O=C1CCC(N2C(=O)c3ccc(N[C@H]4C[C@@H](Oc5ccc(S(=O)(=O)c6ccc(OCc7ccnc(N8CC9(COC9)C8)n7)cc6)cc5)C4)cc3C2=O)C(=O)N1 (stereo partly shown) [Example 363, 5-(((1s,3s)-3-(4-((4-((2-(2-oxa-6-azaspiro[3.3]heptane-6-yl)pyrimidin-4-yl)methoxy)phenyl)sulfonyl)phenoxy)cyclobutyl)amino)-2-(2,6-dioxopiperidin-3-yl)isoindolin-1,3-dione] | < 10 nM | 24 nM | 
5 | CC(c1ccc(Oc2cnc(-n3nccn3)nc2)cc1)c1ccc(O[C@H]2C[C@H](Nc3ccc4c(c3)C(=O)N(C3CCC(=O)NC3=O)C4=O)C2)cc1 (stereo partly shown) [Example 518] | < 10 nM | 13 nM | 
6 | CC(C)(c1ccc(OCc2ccnc(N3CC4(COC4)C3)n2)cc1)c1ccc(OCC2(Nc3ccc4c(c3)C(=O)N(C3CCC(=O)NC3=O)C4=O)CC2)cc1 (stereo not shown) [Example 564, 5-((1-((4-(2-(4-((2-(2-oxa-6-azaspiro[3.3]heptan-6-yl)pyrimidin-4-yl)methoxy)phenyl)propan-2-yl)phenoxy)methyl)cyclopropyl)amino)-2-(2,6-dioxopiperidin-3-yl)isoindolin-1,3-dione] | 11 to 100 nM | 40 nM | 
7 | CC(C)(c1ccc(OCc2cncc(N3CC4(COC4)C3)n2)cc1)c1ccc(O[C@H]2C[C@H](Nc3ccc4c(c3)C(=O)N(C3CCC(=O)NC3=O)C4=O)C2)cc1 (stereo partly shown) [Example 539] | < 10 nM | 8 nM | 
8 | CC(C)(c1ccc(O[C@H]2C[C@@H](Nc3ccc4c(c3)C(=O)N(C3CCC(=O)NC3=O)C4=O)C2)cc1)c1ccc(N2CCc3ncnc(N4CC5(COC5)C4)c3C2)cc1 (stereo partly shown) [Example 194] | 11 to 100 nM | 33 nM | 
9 | CC(C)(c1ccc(Oc2cccnc2)cc1)c1ccc(O[C@H]2C[C@H](Nc3ccc4c(c3)C(=O)N(C3CCC(=O)NC3=O)C4=O)C2)cc1 (stereo partly shown) [Example 547] | < 10 nM | 9 nM | 
10 | CCC(CC)(c1ccc(Oc2ccc(C(C)=O)nn2)cc1)c1ccc(O[C@H]2C[C@H](Nc3ccc4c(c3)C(=O)N(C3CCC(=O)NC3=O)C4=O)C2)cc1 (stereo partly shown) [Example 176, 5-(((1r,3r)-3-(4-(3-(4-((6-acetylpyridazine-3-yl)oxy)phenyl)pentan-3-yl)phenoxy)cyclobutyl)amino)-2-(2,6-dioxopiperidin-3-yl)isoindolin-1,3-dione] | < 10 nM | 2 nM | 
11 | CN1CCN(c2ccc(Oc3ccc(C(C)(C)c4ccc(O[C@H]5C[C@H](Nc6ccc7c(c6)C(=O)N(C6CCC(=O)NC6=O)C7=O)C5)cc4)cc3)nn2)CC1 (stereo partly shown) [Example 425] | < 10 nM | 16 nM | 
12 | CC(C)(c1ccc(Oc2ncnc(N3CC4(COC4)C3)c2F)cc1)c1ccc(O[C@H]2C[C@H](Nc3ccc4c(c3)C(=O)N(C3CCC(=O)NC3=O)C4=O)C2)cc1 (stereo partly shown) [Example 572] | < 10 nM | 16 nM | 
13 | CC(O)c1ncc(Oc2ccc(C3(c4ccc(O[C@H]5C[C@H](Nc6ccc7c(c6)C(=O)N(C6CCC(=O)NC6=O)C7=O)C5)cc4)CCCC3)cc2)cn1 (stereo partly shown) [Example 134] | < 10 nM | < 1 nM | 
14 | CC(C)(c1ccc(OCc2ccnc(N3CC(N4CC(F)C4)C3)n2)cc1)c1ccc(O[C@H]2C[C@H](Nc3ccc4c(c3)C(=O)N(C3CCC(=O)NC3=O)C4=O)C2)cc1 (stereo partly shown) [Example 420] | < 10 nM | 5 nM | 
15 | CC(O)c1ccc(Oc2ccc(C(C)(C)c3ccc(O[C@H]4C[C@@H](Nc5ccc6c(c5)C(=O)N(C5CCC(=O)NC5=O)C6=O)C4)cc3)cc2)nn1 (stereo partly shown) [Example 522] | 11 to 100 nM | 7 nM | 
16 | CC(C)(c1ccc(OCc2ccnc(N3CC(N4CCC4)C3)n2)cc1)c1ccc(O[C@H]2C[C@H](Nc3ccc4c(c3)C(=O)N(C3CCC(=O)NC3=O)C4=O)C2)cc1 (stereo partly shown) [Example 414] | < 10 nM | 6 nM | 
17 | CC(C)(c1ccc(OCCCNc2ccc3c(c2)C(=O)N(C2CCC(=O)NC2=O)C3=O)cc1)c1ccc(OCc2nc(C(=O)N3CCOCC3)no2)cc1 (stereo not shown) [Example 142, 2-(2,6-dioxopiperidin-3-yl)-5-((3-(4-(2-(4-((3-(morpholine-4-carbonyl)-1,2,4-oxadiazol-5-yl)methoxy)phenyl)propan-2-yl)phenoxy)propyl)amino)isoindolin-1,3-dione] | 11 to 100 nM | 61 nM | 
18 | CC(C)C(=O)c1ncc(Oc2ccc(C(C)(C)c3ccc(O[C@H]4C[C@H](Nc5ccc6c(c5)C(=O)N(C5CCC(=O)NC5=O)C6=O)C4)cc3)cc2)cn1 (stereo partly shown) [Example 291] | < 10 nM | 16 nM | 
19 | CNc1nccc(COc2ccc(C(C)(C)c3ccc(O[C@H]4C[C@H](Nc5ccc6c(c5)C(=O)N(C5CCC(=O)NC5=O)C6=O)C4)cc3)cc2)n1 (stereo partly shown) [Example 395] | < 10 nM | 10 nM | 
20 | Cc1nc(-c2nccc(Oc3ccc(C(C)(C)c4ccc(O[C@H]5C[C@H](Nc6ccc7c(c6)C(=O)N(C6CCC(=O)NC6=O)C7=O)C5)cc4)cc3)n2)no1 (stereo partly shown) [Example 288] | < 10 nM | 4 nM | 
21 | Cc1nccc(Oc2ccc(C(C)(C)c3ccc(O[C@H]4C[C@H](Nc5ccc6c(c5)C(=O)N(C5CCC(=O)NC5=O)C6=O)C4)cc3)cc2)n1 (stereo partly shown) [Example 197] | < 10 nM | 5 nM | 
22 | CC(O)c1ccc(Oc2ccc(C3(c4ccc(O[C@H]5C[C@H](Nc6ccc7c(c6)C(=O)N(C6CCC(=O)NC6=O)C7=O)C5)cc4)CCOCC3)cc2)nn1 (stereo partly shown) [Example 105] | < 10 nM | 0.2 nM | 
23 | CCC(CC)(c1ccc(Oc2ccc(C(C)O)nn2)cc1)c1ccc(O[C@H]2C[C@@H](Nc3ccc4c(c3)C(=O)N(C3CCC(=O)NC3=O)C4=O)C2)cc1 (stereo partly shown) [Example 430] | < 10 nM | 9 nM | 
24 | CC(=O)c1ccc(Oc2ccc(C(C)(C)c3ccc(O[C@H]4C[C@H](Nc5ccc6c(c5)C(=O)N(C5CCC(=O)NC5=O)C6=O)C4)cc3)cc2)cn1 (stereo partly shown) [Example 124] | < 10 nM | 8 nM | 
25 | CC(C)(c1ccc(OCc2ccnc(N3CC4(COC4)C3)n2)cc1)c1ccc(O[C@H]2C[C@@H](Nc3ccc4c(c3)CN(C3CCC(=O)NC3=O)C4=O)C2)cc1 (stereo partly shown) [Example 91, 3-(5-(((1s,3s)-3-(4-(2-(4-((2-(2-oxa-6-azaspiro[3.3]heptane-6-yl)pyrimidin-4-yl)methoxy)phenyl)propan-2-yl)phenoxy)cyclobutyl)amino)-1-oxoisoindolin-2-yl)piperidin-2,6-dione] | < 10 nM | 2 nM | 
26 | CC(C)(c1ccc(OCc2ccnc(N3CC4(CCOCC4)C3)n2)cc1)c1ccc(O[C@H]2C[C@@H](Nc3ccc4c(c3)C(=O)N(C3CCC(=O)NC3=O)C4=O)C2)cc1 (stereo partly shown) [Example 89, 5-(((1s,3s)-3-(4-(2-(4-((2-(7-oxa-2-azaspiro[3.5]nonan-2-yl)pyrimidin-4-yl)methoxy)phenyl)propan-2-yl)phenoxy)cyclobutyl)amino)-2-(2,6-dioxopiperidin-3-yl)isoindolin-1,3-dione] | < 10 nM | 16 nM | 
27 | Cc1nc(-c2ncc(Oc3ccc(C4(c5ccc(O[C@H]6C[C@H](Nc7ccc8c(c7)C(=O)N(C7CCC(=O)NC7=O)C8=O)C6)cc5)CCOCC4)cc3)cn2)no1 (stereo partly shown) [Example 382, 2-(2,6-dioxopiperidin-3-yl)-5-(((1r,3r)-3-(4-(4-(4-((2-(5-methyl-1,2,4-oxadiazol-3-yl)pyrimidin-5-yl)oxy)phenyl)tetrohydro-2H-pyran-4-yl)phenoxy)cyclobutyl)amino)isoindolin-1,3-dione] | < 10 nM | < 1 nM | 
28 | CC(C)(c1ccc(Oc2cccc(-n3nccn3)n2)cc1)c1ccc(O[C@H]2C[C@H](Nc3ccc4c(c3)C(=O)N(C3CCC(=O)NC3=O)C4=O)C2)cc1 (stereo partly shown) [Example 256, 5-((1r,3r)-3-(4-(2-(4-((6-(2H-1,2,3-triazol-2-yl)pyridin-2-yl)oxy)phenyl)propan-2-ylphenoxy)cyclobutyl)amino)-2-(2,6-dioxopiperidin-3-yl)isoindolin-1,3-dione] | < 10 nM | 2 nM | 
29 | CC(C)(c1ccc(OCCCCCCCCOCCCCNc2ccc3c(c2)C(=O)N(C2CCC(=O)NC2=O)C3=O)cc1)c1ccc(OCc2ccnc(N3CC4(COC4)C3)n2)cc1 (stereo not shown) [Example 61, 5-((4-((8-(4-(2-(4-((2-(2-oxa-6-azaspiro[3.3]heptan-6-yl)pyrimidin-4-yl)methoxy)phenyl)propan-2-yl)phenoxy)octyl)oxy)butyl)amino)-2-(2,6-dioxopiperidin-3-yl)isoindolin-1,3-dione] | 1000 to 5000 nM |  | 4000 nM
